According to patent US7417030B2, “Indazole peptidomimetics as thrombin receptor antagonists” (Ortho-McNeil Pharmaceutical, Inc., priority 1999, dated 2008):

Legend:
[1] = test system: platelet aggregation stimulated by thrombin (gel-filtered platelets); assay: In vitro inhibition of thrombin-induced gel-filtered platelet aggregation assay; type: cell-based; details: thrombin-induced gel-filtered human platelet aggregation; agonist thrombin 50 μL of 1 unit/mL; read-out: IC50 (μM) Thr GFP Aggr
Protocol: In Vitro Inhibition Of Thrombin-Induced Gel-Filtered Platelet Aggregation Assay
The percentage of platelet aggregation is calculated as an increase in light transmission of compound-treated platelet concentrate vs. control-treated platelet concentrate. Human blood is obtained from drug free, normal donors in tubes containing 0.13M sodium citrate. Platelet rich plasma (PRP) is collected by centrifugation of whole blood at 200×g for 10 min at 25° C. The PRP (5 mL) is gel filtered through Sepharose 2B (bed volume 50 mL), and the platelet count is adjusted to 2×10^7 platelets per sample. The following constituents are added to a siliconized cuvette: concentrated platelet filtrate and Tyrode's buffer (0.14M NaCl, 0.0027M KCl, 0.012M NaHCO3, 0.76 mM Na2HPO4, 0.0055M glucose, 2 mg/mL BSA and 5.0 mM HEPES @ pH 7.4) in an amount equal to 350 μL, 50 μL of 20 mM calcium and 50 μL of the test compound. Aggregation is monitored in a BIODATA aggregometer for the 3 min following the addition of agonist (thrombin 50 μL of 1 unit/mL).

[2] = molecular target: T1, Thrombin receptor (PAR-1) (Homo sapiens, UniProt P25116); assay: In vitro thrombin receptor binding assay; details: CHRF membranes; tritiated 721-40 (Ser-pFPhe-Har-Leu-Har-Lys-Tyr-NH2) radioligand; read-out: IC50 (μM) Thr Recptr Bdg
T1 construct: CHRF membranes (Jones, Biochim. Biophys. Acta 1992, 1136, 272) are thawed from −70° C; endogenous in cells; host or cells: CHRF cell membranes
T1 sequence (P25116 22-425): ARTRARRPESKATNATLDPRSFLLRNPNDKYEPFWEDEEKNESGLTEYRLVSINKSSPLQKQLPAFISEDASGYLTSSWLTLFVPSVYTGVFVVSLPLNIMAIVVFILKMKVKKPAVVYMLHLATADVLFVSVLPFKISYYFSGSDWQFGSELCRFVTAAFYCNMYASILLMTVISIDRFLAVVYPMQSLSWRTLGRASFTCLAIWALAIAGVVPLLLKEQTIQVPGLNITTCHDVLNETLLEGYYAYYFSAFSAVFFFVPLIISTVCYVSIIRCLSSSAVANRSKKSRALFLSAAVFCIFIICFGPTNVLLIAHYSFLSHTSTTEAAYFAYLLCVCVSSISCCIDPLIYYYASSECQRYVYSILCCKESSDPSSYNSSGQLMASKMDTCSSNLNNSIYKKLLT
Protocol: In Vitro Thrombin Receptor Binding Assay
CHRF membranes (Jones, Biochim. Biophys. Acta 1992, 1136, 272) are thawed from −70° C., centrifuged at maximum speed for 5 min, washed twice with binding buffer (50 mM HEPES containing 5 mM MgCl2 and 0.1% BSA), and re-suspended in binding buffer (25 μg/[…]). 100 μL of membranes are added to the 24-Wallac plates and delivered to the Tomtech apparatus. In a typical experiment, 6 μL of samples (from a 125 μg/mL intermediary plate, 20% DMSO) and 44 μL buffer are delivered to the plates (final conc. of compounds is 3.7 μg/mL, 0.6% DMSO). Similarly, 6 μL 20% DMSO and 44 μL buffer are delivered to both column 1 (NSB) and column 12 (TB). […] Ser-pFPhe-Har-Leu-Har-Lys-Tyr-NH2 (SEQ. ID. No. 2) (721-40; 500 μM in deionized water) is added to column 1. 50 μL tritiated 721-40 (specific activity 46 Ci/mmol) is added to all the wells. The plates are mixed well for 20 seconds, incubated for 30 min, and then harvested with 10 mM HEPES/138 mM NaCl using the Skatron harvester. The filters (GF/C Brandel FPXLR 296) are presoaked 3 h in 0.5% polyethylenimine in HEPES/0.1M N-acetylglucosamine) are set in Saran™ wrap and dried for 3 min in the microwave, and placed in sample bags (Wallac 1450-432). 4.5 mL scintillation fluid (Wallac, Betaplate Scint 1205-440) is added. The bags are sealed, placed in filter cassettes (Wallac 1450-104), and analyzed on the microbeta counter.

Row | SMILES | IC50 [1] [µM] | IC50 [2] [µM]
1 | NCCNC(=O)[C@H](Cc1ccncc1)NC(=O)[C@H](Cc1ccc(F)c(F)c1)NC(=O)Nc1ccc2c(CN3CCCC3)nn(Cc3c(Cl)cccc3Cl)c2c1 [Compound 3, L-Alaninamide, 3,4-difluoro-N-[[[1-[(2,6-dichlorophenyl)methyl]-3-(1-pyrrolidinylmethyl)-1H-indazol-6-yl]amino]carbonyl]-L-phenylalanyl-N-(2-aminoethyl)-3-(4-pyridinyl)-] | 0.5 | 0.03
2 | NCC[C@H](NC(=O)[C@H](Cc1ccc(F)c(F)c1)NC(=O)Nc1ccc2c(CN3CCCC3)nn(Cc3c(Cl)cccc3Cl)c2c1)C(=O)NCc1ccccc1 [Compound 1, Benzenepropanamide, N-[(1S)-3-amino-1-[[(phenylmethyl)amino]carbonyl]propyl]-α-[[[[[1-(2,6-dichlorophenyl)methyl]-3-(1-pyrrolidinylmethyl)-1H-indazol-6-yl]amino]carbonyl]amino]-3,4-difluoro-,(αS)-] | 0.31 | 0.04
3 | NCC[C@H](NC(=O)[C@H](Cc1ccc(F)c(F)c1)NC(=O)Nc1ccc2c(CN3CCCC3)nn(Cc3c(Cl)cccc3Cl)c2c1)C(=O)N[C@H](CO)c1ccccc1 [Compound 5] | 0.66 | 0.32
4 | NCC[C@H](NC(=O)[C@H](Cc1ccc(Cl)cc1)NC(=O)Nc1ccc2c(CN3CCCC3)nn(Cc3c(Cl)cccc3Cl)c2c1)C(=O)NCc1ccccc1 [Compound 2, Benzenepropanamide, N-[(1S)-3-amino-1-[[(phenylmethyl)amino]carbonyl]propyl]-α-[[[[[1-(2,6-dichlorophenyl)methyl]-3-(1-pyrrolidinylmethyl)-1H-indazol-6-yl]amino]carbonyl]amino]-4-chloro-, (αS)-] | 0.26 | 20
5 | NCCNC(=O)[C@H](Cc1cccs1)NC(=O)[C@H](Cc1ccc(Cl)cc1)NC(=O)Nc1ccc2c(CN3CCCC3)nn(Cc3c(Cl)cccc3Cl)c2c1 [Compound 6] | 0.3 | 5.8
6 | C[C@@H](NC(=O)[C@H](CCN)NC(=O)[C@H](Cc1ccc(F)c(F)c1)NC(=O)Nc1ccc2c(CN3CCCC3)nn(Cc3c(Cl)cccc3Cl)c2c1)c1ccccc1 [Compound 4] | 0.32 | 0.15
